PubChem BioAssay AID1259411 (Chemical Carcinogenesis Research Information System (CCRIS), 2018)
Activity calls are given as the source filed them. How the calls were made is not given here.

System: rodent carcinogenicity bioassays, tumor incidence
Experiment: CCRIS carcinogenicity studies
Method in brief: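 NCI-built, expert-reviewed records of carcinogenicity and related test outcomes (mutagenicity, tumor promotion/inhibition) compiled from published and report sources, historical span 1985-2011, not updated.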

ClC(Cl)Cl
carcinogen call (Species: FISH, Strain/Sex: ORYZIPIAS LATIPES/FEMALE, Route: IMMERSION, Dose: 0, 0.017, 0.151, 1.463 MG/L AQUEOUS SOLUTION FOR 6 MO (STUDY DURATION: 6 MO), Dose: 0, 0.017, 0.151, 1.463 MG/L AQUEOUS SOLUTION FOR 6 MO (STUDY DURATION: 6 MO)): inactive; negative
carcinogen call (Species: FISH, Strain/Sex: ORYZIPIAS LATIPES/FEMALE, Route: IMMERSION, Dose: 0, 0.017, 0.151, 1.463 MG/L AQUEOUS SOLUTION FOR 9 MO (STUDY DURATION: 9 MO), Dose: 0, 0.017, 0.151, 1.463 MG/L AQUEOUS SOLUTION FOR 9 MO (STUDY DURATION: 9 MO)): inactive; negative
carcinogen call (Species: FISH, Strain/Sex: ORYZIPIAS LATIPES/MALE, Route: IMMERSION, Dose: 0, 0.017, 0.151, 1.463 MG/L AQUEOUS SOLUTION FOR 6 MO (STUDY DURATION: 6 MO), Dose: 0, 0.017, 0.151, 1.463 MG/L AQUEOUS SOLUTION FOR 6 MO (STUDY DURATION: 6 MO)): inactive; negative
carcinogen call (Species: FISH, Strain/Sex: ORYZIPIAS LATIPES/MALE, Route: IMMERSION, Dose: 0, 0.017, 0.151, 1.463 MG/L AQUEOUS SOLUTION FOR 9 MO (STUDY DURATION: 9 MO), Dose: 0, 0.017, 0.151, 1.463 MG/L AQUEOUS SOLUTION FOR 9 MO (STUDY DURATION: 9 MO)): inactive; negative
carcinogen call (Species: MOUSE, Strain/Sex: B6C3F1/FEMALE, Route: ORAL, Dose: 0, 200, 400, 900, 1800 MG/L IN DRINKING WATER FOR 104 WK (STUDY DURATION: 24 MO), Dose: 0, 200, 400, 900, 1800 MG/L IN DRINKING WATER FOR 104 WK (STUDY DURATION: 24 MO)): inactive; negative
carcinogen call (Species: MOUSE, Strain/Sex: B6C3F1/FEMALE, Route: ORAL, Dose: 0, 200, 400, 900, 1800 ML/L IN DRINKING WATER FOR AN AVERAGE DOSE OF 0, 34, 65, 130, 263 MG/KG BW/D FOR 104 WK (STUDY DU, Dose: 0, 200, 400, 900, 1800 ML/L IN DRINKING WATER FOR AN AVERAGE DOSE OF 0, 34, 65, 130, 263 MG/KG BW/D FOR 104 WK (STUDY DU): inactive; negative
carcinogen call (Species: MOUSE, Strain/Sex: B6C3F1/MALE,FEMALE, Route: GAVAGE, Tumor Site: Type of Lesion: LIVER: HEPATOCELLULAR CARCINOMA): active; positive
carcinogen call (Species: MOUSE, Strain/Sex: BDF1/FEMALE, Route: INHALATION, Dose: 0, 5, 30, 90 PPM IN AIR, 6 HR/D, 5 D/WK FOR 104 WK (STUDY DURATION: 104 WK), Dose: 0, 5, 30, 90 PPM IN AIR, 6 HR/D, 5 D/WK FOR 104 WK (STUDY DURATION: 104 WK), Tumor Site: Type of Lesion: LIVER: HEPATOCELLULAR CARCINOMA, HEPATOCELLULAR CARCINOMA AND ADENOMA): active; positive
carcinogen call (Species: MOUSE, Strain/Sex: BDF1/MALE, Route: INHALATION, Dose: 0, 5, 30, 90 PPM IN AIR, 6 HR/D, 5 D/WK FOR 104 WK (STUDY DURATION: 104 WK), Dose: 0, 5, 30, 90 PPM IN AIR, 6 HR/D, 5 D/WK FOR 104 WK (STUDY DURATION: 104 WK), Tumor Site: Type of Lesion: LIVER: HEPATOCELLULAR CARCINOMA, HEPATOCELLULAR CARCINOMA AND ADENOMA, KIDNEYS: RENAL CELL CARCINOMA, RENAL CELL ADENOMA): active; positive
carcinogen call (Species: RAT, Strain/Sex: F344/DUCRJ/MALE, Route: INHALATION, Dose: 0;25, 50, 100 PPM VAPOR CHAMBER 6 HR/D, 5 D/WK FOR 104 WK (STUDY DURATION: 104 WK), Dose: 0;25, 50, 100 PPM VAPOR CHAMBER 6 HR/D, 5 D/WK FOR 104 WK (STUDY DURATION: 104 WK)): inactive; negative
carcinogen call (Species: RAT, Strain/Sex: F344/DUCRJ/MALE, Route: ORAL AND INHALATION, Dose: 0, 1,000 PPM IN DRINKING WATER AND 0, 25, 50, 100 PPM VAPOR CHAMBER 6 HR/D, 5 D/WK , BOTH FOR 104 WK (STUDY DURATION: 10, Dose: 0, 1,000 PPM IN DRINKING WATER AND 0, 25, 50, 100 PPM VAPOR CHAMBER 6 HR/D, 5 D/WK , BOTH FOR 104 WK (STUDY DURATION: 10, Tumor Site: Type of Lesion: KIDNEY: ADENOMA, CARCINOMA, THYROID: ADENOMA, CARCINOMA): active; positive
carcinogen call (Species: RAT, Strain/Sex: F344/DUCRJ/MALE, Route: ORAL, Dose: 0, 1,000 PPM IN DRINKING FOR 104 WK (STUDY DURATION: 104 WK)): inactive; negative
carcinogen call (Species: RAT, Strain/Sex: F344/FEMALE, Route: INHALATION, Dose: 0, 10, 30, 90 PPM IN AIR, 6 HR/D, 5 D/WK FOR 104 WK (STUDY DURATION: 104 WK), Dose: 0, 10, 30, 90 PPM IN AIR, 6 HR/D, 5 D/WK FOR 104 WK (STUDY DURATION: 104 WK)): inactive; negative
carcinogen call (Species: RAT, Strain/Sex: F344/MALE, Route: INHALATION, Dose: 0, 10, 30, 90 PPM IN AIR, 6 HR/D, 5 D/WK FOR 104 WK (STUDY DURATION: 104 WK), Dose: 0, 10, 30, 90 PPM IN AIR, 6 HR/D, 5 D/WK FOR 104 WK (STUDY DURATION: 104 WK)): inactive; negative
carcinogen call (Species: RAT, Strain/Sex: OSBORNE-MENDEL/MALE, Route: GAVAGE, Tumor Site: Type of Lesion: KIDNEY: ADENOMA, CARCINOMA): active; positive
carcinogen call (Species: RAT, Strain/Sex: OSBORNE-MENDEL/MALE, Route: ORAL, Dose: 0, 200, 400, 900, 1800 MG/L IN DRINKING WATER FOR 104 WK (STUDY DURATION: 24 MO), Dose: 0, 200, 400, 900, 1800 MG/L IN DRINKING WATER FOR 104 WK (STUDY DURATION: 24 MO), Tumor Site: Type of Lesion: KIDNEY: TUBULAR CELL CARCINOMA OR ADENOCARCINOMA, TUBULAR CELL CARCINOMA, ADRENAL GLAND: CORTICAL ADENOMA, PHEOCHROMOCYT): active; positive
carcinogen call (Species: RAT, Strain/Sex: OSBORNE-MENDEL/MALE, Route: ORAL, Dose: 0, 200, 400, 900, 1800 ML/L IN DRINKING WATER FOR AN AVERAGE DOSE OF 0, 19, 38, 81, 160 MG/KG BW/D FOR 104 WK (STUDY DUR, Dose: 0, 200, 400, 900, 1800 ML/L IN DRINKING WATER FOR AN AVERAGE DOSE OF 0, 19, 38, 81, 160 MG/KG BW/D FOR 104 WK (STUDY DUR, Tumor Site: Type of Lesion: KIDNEY (TUBULAR CELL): ADENOMA OR ADENOCARCINOMA): active; positive
carcinogen call (Species: RAT, Strain/Sex: WISTAR/FEMALE, Route: ORAL, Dose: 0, 2 ML/L (24 MILLIMOLAR) IN DRINKING WATER FOR 72 WK THEN DOSE HALVED FOR DURATION OF STUDY (STUDY DURATION: LIFETIME), Tumor Site: Type of Lesion: LIVER: NEOPLASTIC NODULES): active; positive
carcinogen call (Species: RAT, Strain/Sex: WISTAR/MALE, Route: ORAL, Dose: 0, 2 ML/L (24 MILLIMOLAR) IN DRINKING WATER FOR 72 WK THEN DOSE HALVED FOR DURATION OF STUDY (STUDY DURATION: LIFETIME)): inactive; negative
carcinogen call (Species: Rat, Strain/Sex: F344/DuCrj/ Male (50 per group), Route: Inhalation and oral (drinking water), Dose: 0, 25, 50, 100 ppm in air, 6 hr/d, 5 d/wk for 104 wk, each group also given chloroform-formulated drinking water (1000 p, Dose: 0, 25, 50, 100 ppm in air, 6 hr/d, 5 d/wk for 104 wk, each group also given chloroform-formulated drinking water (1000 p, Tumor Site: Type of Lesion: KIDNEY: renal-cell adenomas and carcinomas): active; positive, positive trend; significant increase in high dose group; exposure leve
carcinogen call (Species: Rat, Strain/Sex: F344/DuCrj/ Male (50 per group), Route: Inhalation, Dose: 0, 25, 50, 100 ppm in air, 6 hr/d, 5 d/wk for 104 wk, Dose: 0, 25, 50, 100 ppm in air, 6 hr/d, 5 d/wk for 104 wk, Tumor Site: Type of Lesion: KIDNEY: one renal-cell adenoma in the high dose group): inactive; negative

O=C(O)CN(CCN(CC(=O)O)CC(=O)O)CC(=O)O
carcinogen call (Species: MOUSE, Strain/Sex: B6C3F1/FEMALE, Route: ORAL, Dose: 0, 3750, 7500 PPM IN DIET, Dose: 0, 3750, 7500 PPM IN DIET): inactive; negative
carcinogen call (Species: MOUSE, Strain/Sex: B6C3F1/MALE, Route: ORAL, Dose: 0, 3750, 7500 PPM IN DIET, Dose: 0, 3750, 7500 PPM IN DIET): inactive; negative
carcinogen call (Species: RAT, Strain/Sex: F344/FEMALE, Route: ORAL, Dose: 0, 3750, 7500 PPM IN DIET, Dose: 0, 3750, 7500 PPM IN DIET): inactive; negative
carcinogen call (Species: RAT, Strain/Sex: F344/MALE, Route: ORAL, Dose: 0, 3750, 7500 PPM IN DIET, Dose: 0, 3750, 7500 PPM IN DIET): inactive; negative
